{
  "source": "patent US10538512B2",
  "about": "“Aminoacylindazole immunomodulators for treatment of autoimmune diseases” (The Rockefeller University, priority 2016, dated 2020)",
  "key": {"Human FXIIa": {"target": "T1, Human FXIIa (Homo sapiens, UniProt P00748)", "T1 construct": "active coagulation factor XII (FXIIa); purchased Enzyme Research Labs", "T1 sequence (P00748 373-615 limits assumed)": "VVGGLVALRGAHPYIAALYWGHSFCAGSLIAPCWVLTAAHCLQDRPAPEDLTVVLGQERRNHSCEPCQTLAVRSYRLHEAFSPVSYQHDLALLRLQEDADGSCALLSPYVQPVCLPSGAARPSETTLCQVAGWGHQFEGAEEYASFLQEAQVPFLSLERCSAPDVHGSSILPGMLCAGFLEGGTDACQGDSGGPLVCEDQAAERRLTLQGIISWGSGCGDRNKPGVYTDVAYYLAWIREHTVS", "T1 sequence (P00748 20-372 partner limits assumed)": "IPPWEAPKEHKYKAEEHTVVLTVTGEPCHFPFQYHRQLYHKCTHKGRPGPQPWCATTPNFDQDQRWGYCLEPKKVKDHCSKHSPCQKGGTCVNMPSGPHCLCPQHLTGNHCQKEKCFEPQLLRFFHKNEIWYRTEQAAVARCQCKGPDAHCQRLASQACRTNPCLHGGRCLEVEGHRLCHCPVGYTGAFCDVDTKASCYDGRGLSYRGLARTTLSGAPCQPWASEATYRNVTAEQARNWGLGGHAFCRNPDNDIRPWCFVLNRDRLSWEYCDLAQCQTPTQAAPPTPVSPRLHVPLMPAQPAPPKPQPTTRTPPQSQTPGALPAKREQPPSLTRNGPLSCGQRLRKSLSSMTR", "test": "Factor XIIa (FXIIa) inhibitory activity, chromogenic substrate assay", "type": "biochemical", "conditions": "Human FXIIa 12.5 nM, Pefachrome XIIa 400 μM, 10 min preincubation", "in_short": "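Buffer was 0.5× HBSS with 25 mM HEPES pH 7.4 and 0.5× TBS-Tween 0.05%. Enzyme and compound (about 1–100 μM) were preincubated 10 min at room temperature, then Pefachrome XIIa was added at 400 μM final. Substrate cleavage was followed as the rate of A405 change at 37 °C.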"}, "Human alpha-thrombin": {"target": "T2, Human alpha-thrombin (Homo sapiens, UniProt P00734)", "T2 construct": "Human alpha-thrombin (Enzyme Research Labs); purchased Enzyme Research Labs", "test": "Thrombin counterscreen for selectivity, fluorogenic substrate assay", "type": "biochemical", "conditions": "Human alpha-thrombin 12.5 nM, Boc-Val-Pro-Arg-AMC 20 μM, 10 min preincubation", "in_short": "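Compounds, about 1–100 μM, preincubated 10 min at room temperature with enzyme, then Boc-Val-Pro-Arg-AMC added at 20 μM final.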"}},
  "data": [
    {"smiles": "Nc1c2c(nn1C(=O)[C@H]1CCNc3ccc(F)cc31)CC[C@H](F)C2", "note": "(single isomer, unassigned) [Example 140, ((5S*)-3-amino-5-fluoro-4,5,6,7-tetrahydroindazol-2-yl)((4S*)-6-fluoro-1,2,3,4-tetrahydroquinolin-4-yl)methanone]", "values": [
      {"measurement": "IC50", "setting": "Human FXIIa", "value": 0.2, "unit": "µM"},
      {"measurement": "IC50", "setting": "Human alpha-thrombin", "value": "> 60", "unit": "µM"}
    ]},
    {"smiles": "Nc1nn(C(=O)c2cccc3[nH]ncc23)c2c1CCCC2", "note": "[Example 157]", "values": [
      {"measurement": "IC50", "setting": "Human FXIIa", "value": 30, "unit": "µM"},
      {"measurement": "IC50", "setting": "Human alpha-thrombin", "value": "> 100", "unit": "µM"}
    ]},
    {"smiles": "Nc1c2c(nn1C(=O)[C@H]1CCCc3[nH]c(Cl)cc31)CC[C@@H](O)C2", "note": "(single isomer, unassigned) [Example 126, ((5R*)-3-amino-5-hydroxy-4,5,6,7-tetrahydroindazol-2-yl)((4S*)-2-chloro-4,5,6,7-tetrahydro-1H-indol-4-yl)methanone]", "values": [
      {"measurement": "IC50", "setting": "Human FXIIa", "value": 0.02, "unit": "µM"},
      {"measurement": "IC50", "setting": "Human alpha-thrombin", "value": 37, "unit": "µM"}
    ]},
    {"smiles": "CCn1c(C)cc2c(C(=O)n3nc4c(c3N)CCCC4)cccc21", "note": "[Example 38, (3-amino-4,5,6,7-tetrahydroindazol-2-yl)(1-ethyl-2-methyl-1H-indol-4-yl)methanone]", "values": [
      {"measurement": "IC50", "setting": "Human FXIIa", "value": 0.04, "unit": "µM"},
      {"measurement": "IC50", "setting": "Human alpha-thrombin", "value": 44, "unit": "µM"}
    ]},
    {"smiles": "Nc1nn(C(=O)c2ccnc3cc(Cl)ccc23)c2c1CCCC2", "note": "[Example 124, (3-amino-4,5,6,7-tetrahydro-2H-indazol-1-yl)(7-chloroquinolin-4-yl)methanone]", "values": [
      {"measurement": "IC50", "setting": "Human FXIIa", "value": 60, "unit": "µM"},
      {"measurement": "IC50", "setting": "Human alpha-thrombin", "value": 60, "unit": "µM"}
    ]},
    {"smiles": "C=Cc1cc2c(C(=O)n3nc4c(c3N)CCCC4)cccc2[nH]1", "note": "(single isomer, unassigned) [Example 70, (3-amino-4,5,6,7-tetrahydroindazol-2-yl)(2-vinyl-1H-indol-4-yl)methanone]", "values": [
      {"measurement": "IC50", "setting": "Human FXIIa", "value": 0.02, "unit": "µM"},
      {"measurement": "IC50", "setting": "Human alpha-thrombin", "value": 13, "unit": "µM"}
    ]},
    {"smiles": "CC(C)n1ccc2c(C(=O)n3nc4c(c3N)CCCC4)cccc21", "note": "[Example 29, (3-amino-4,5,6,7-tetrahydroindazol-2-yl)(1-isopropyl-1H-indol-4-yl)methanone]", "values": [
      {"measurement": "IC50", "setting": "Human FXIIa", "value": 0.15, "unit": "µM"},
      {"measurement": "IC50", "setting": "Human alpha-thrombin", "value": "> 50", "unit": "µM"}
    ]},
    {"smiles": "Cc1cc2ccc(C(=O)n3nc(N)c4c3CCCC4)cc2o1", "note": "[Example 61, (3-amino-4,5,6,7-tetrahydroindazol-1-yl)(2-methylbenzofuran-6-yl)methanone]", "values": [
      {"measurement": "IC50", "setting": "Human FXIIa", "value": "> 50", "unit": "µM"},
      {"measurement": "IC50", "setting": "Human alpha-thrombin", "value": 20, "unit": "µM"}
    ]},
    {"smiles": "Nc1c2c(nn1C(=O)c1cccc3[nH]c(Br)cc13)CCCC2", "note": "(single isomer, unassigned) [Example 62, (3-amino-4,5,6,7-tetrahydroindazol-2-yl)(2-bromo-1H-indol-4-yl)methanone]", "values": [
      {"measurement": "IC50", "setting": "Human FXIIa", "value": 0.01, "unit": "µM"},
      {"measurement": "IC50", "setting": "Human alpha-thrombin", "value": 20, "unit": "µM"}
    ]},
    {"smiles": "Cc1sc2ccccc2c1C(=O)n1nc(N)c2c1CCCC2", "note": "(single isomer, unassigned) [Example 24, (3-amino-4,5,6,7-tetrahydroindazol-1-yl)(2-methylbenzo[b]thiophen-3-yl)methanone]", "values": [
      {"measurement": "IC50", "setting": "Human FXIIa", "value": "> 100", "unit": "µM"},
      {"measurement": "IC50", "setting": "Human alpha-thrombin", "value": "> 100", "unit": "µM"}
    ]},
    {"smiles": "CCc1cc2c(C(=O)n3nc(N)c4c3CCCC4)cccc2n1C", "note": "(single isomer, unassigned) [Example 67, (3-amino-4,5,6,7-tetrahydroindazol-1-yl)(2-ethyl-1-methyl-1H-indol-4-yl)methanone]", "values": [
      {"measurement": "IC50", "setting": "Human FXIIa", "value": "> 50", "unit": "µM"},
      {"measurement": "IC50", "setting": "Human alpha-thrombin", "value": "> 50", "unit": "µM"}
    ]},
    {"smiles": "O=C(c1cccc2[nH]ccc12)n1cc2c(n1)CCCC2", "note": "[Example 27, (1H-indol-4-yl)(4,5,6,7-tetrahydroindazol-2-yl)methanone]", "values": [
      {"measurement": "IC50", "setting": "Human FXIIa", "value": 0.4, "unit": "µM"},
      {"measurement": "IC50", "setting": "Human alpha-thrombin", "value": 6, "unit": "µM"}
    ]},
    {"smiles": "CN1CCC(C(=O)n2nc3c(c2N)CCCC3)c2ccccc21", "note": "(single isomer, unassigned) [Example 73, (R*)-(3-amino-4,5,6,7-tetrahydroindazol-2-yl)(1-methyl-1,2,3,4-tetrahydroquinolin-4-yl)methanone]", "values": [
      {"measurement": "IC50", "setting": "Human FXIIa", "value": "> 50", "unit": "µM"},
      {"measurement": "IC50", "setting": "Human alpha-thrombin", "value": "> 50", "unit": "µM"}
    ]},
    {"smiles": "Nc1c2c(nn1C(=O)C1CCNc3ccc(F)cc31)CCC(F)(F)C2", "note": "(single isomer, unassigned) [Example 173, (S*)-(3-amino-5,5-difluoro-4,5,6,7-tetrahydroindazol-2-yl)(6-fluoro-1,2,3,4-tetrahydroquinolin-4-yl)methanone]", "values": [
      {"measurement": "IC50", "setting": "Human FXIIa", "value": 0.1, "unit": "µM"},
      {"measurement": "IC50", "setting": "Human alpha-thrombin", "value": 30, "unit": "µM"}
    ]},
    {"smiles": "CCn1cc(C(=O)n2nc3c(c2N)CCCC3)c2ccccc21", "note": "[Example 43, (3-amino-4,5,6,7-tetrahydroindazol-2-yl)(1-ethyl-1H-indol-3-yl)methanone]", "values": [
      {"measurement": "IC50", "setting": "Human FXIIa", "value": 7.5, "unit": "µM"},
      {"measurement": "IC50", "setting": "Human alpha-thrombin", "value": "> 100", "unit": "µM"}
    ]}
  ]
}
